# Experimental data reported in a flash point compilation (Sun et al. 2020).
row,flash point [°C],Compound
1,19,CCC(C)CS (stereo unspecified) [2-methyl-1-butanethiol]
2,46,CCC(O)C(C)C (stereo unspecified) [2-methyl-3-pentanol]
3,41,CCCC(CC)C(C)CC (stereo unspecified) [4-ethyl-3-methylheptane]
4,-7,CCCC=O [butanal]
5,71,CCc1cccc(Br)c1 [1-bromo-3-ethylbenzene]
6,45,CCCC(C)I (stereo unspecified) [2-iodopentane]
7,58,"CCc1ccc(C)c(C)c1 [4-ethyl-1,2-dimethylbenzene]"
8,21,CCc1cccs1 [2-ethylthiophene]
9,115,CCCCCCCCCCCO [1-undecanol]
10,28,CC(C)CO [2-methyl-1-propanol]
11,-20,C#CCCCC [1-hexyne]
12,16,"CCC(C)(C)C(C)(C)C [2,2,3,3-tetramethylpentane]"
13,-10,"CC#CC(C)(C)C [4,4-dimethyl-2-pentyne]"
14,102,CC(C)(C)c1ccc(N)cc1 [4-tert-butylaniline]
15,78,CC#CCCCCCCCCC [2-dodecyne]
16,2,CC#N [acetonitrile]
17,83,CCCCCCc1ccccc1 [hexylbenzene]
18,20,CCCC(C)(C)S [2-methyl-2-pentanethiol]
19,13,"ClCCCl [1,2-dichloroethane]"
20,-32,C=CCC(C)C [4-methyl-1-pentene]
21,31,CCCC1CCCCC1 [propylcyclohexane]
22,65,NCc1ccccc1 [benzylamine]
23,18,CCCCOC=O [butylformate]

row,flash point [°C],Compound
1,-1,CC(=O)C(C)C [3-methyl-2-butanone]
2,-2,C#CCCCCC [1-heptyne]
3,122,"CCCCC(O)CO (stereo unspecified) [1,2-hexanediol]"
4,63,CCCCCCCCC=O [nonanal]
5,50,CC(C)Cc1ccccc1 [isobutylbenzene]
6,113,CCCCCC(=O)OC(=O)CCCCC [hexanoicanhydride]
7,30,CCCc1ccccc1 [propylbenzene]
8,-9,CC/C=C\CCC [cis-3-heptene]
9,-26,C=CCCCC [1-hexene]
10,-5,CCOCOCC [diethoxymethane]
11,43,CC(C)CCO [3-methyl-1-butanol]
12,104,CCCCCCCCCCOC(C)=O [decylacetate]
13,-19,"CCC(C)(C)CC [3,3-dimethylpentane]"
14,7,CCC(=O)CC [3-pentanone]
15,26,"CC(C)CCCC(C)C [2,6-dimethylheptane]"
16,13,C1CCSC1 [thiacyclopentane]
17,-2,CCc1ccco1 [2-ethylfuran]
18,76,"CCN(CC)C(C)=O [N,N-diethylacetamide]"
19,31,"CCC(C)C(C)C(C)CC (stereo unspecified) [3,4,5-trimethylheptane]"
20,65,C#CCCCCCCCCC [1-undecyne]
21,-30,CCCN [propylamine]
22,89,CCCCCC#CC(=O)OC [methyl2-octynoate]
23,33,CCOC(=O)OCC [diethylcarbonate]

row,flash point [°C],Compound
1,-9,C=CCCCCC [1-heptene]
2,17,CCC/C=C\CCC [cis-4-octene]
3,41,CCCCC(CC)CCC (stereo unspecified) [4-ethyloctane]
4,-34,"C#CC(C)(C)C [3,3-dimethyl-1-butyne]"
5,77,CC(=O)c1ccccc1 [acetophenone]
6,48,"NCCCN [1,3-propanediamine]"
7,-27,C=C(C)CCC [2-methyl-1-pentene]
8,109,CCCCCCC(=O)O [heptanoicacid]
9,38,"CCCC(CC)C(C)(C)C (stereo unspecified) [3-ethyl-2,2-dimethylhexane]"
10,33,c1cc[nH]c1 [pyrrole]
11,46,Cc1ccc(Cl)cc1 [4-chlorotoluene]
12,43,NCC1CCCCC1 [(aminomethyl)cyclohexane]
13,-24,"C1=COCC1 [2,3-dihydrofuran]"
14,53,COc1ccc(C)cc1 [4-methylanisole]
15,15,"CC(C)CC(C)C(C)C (stereo unspecified) [2,3,5-trimethylhexane]"
16,40,CC(=O)O [aceticacid]
17,58,COCCNCCOC [bis(2-methoxyethyl)amine]
18,28,CCCSCCC [dipropylsulfide]
19,6,CCC1(C)CCCC1 [1-ethyl-1-methylcyclopentane]
20,63,C=CN(C)C(C)=O [N-vinyl-N-methylacetamide]
21,-25,CC/C=C/CC [trans-3-hexene]
22,-10,CCSCC [diethylsulfide]
23,43,C=CCCCO [4-penten-1-ol]

row,flash point [°C],Compound
1,108,CCCCCCCCCCC(C)=O [2-dodecanone]
2,93,C#CCCCCCCCCCCC [1-tridecyne]
3,67,CC(C)C(=O)OC(=O)C(C)C [isobutanoicanhydride]
4,102,CC(C)COC(=O)c1ccccc1 [isobutylbenzoate]
5,15,"CCC(C)(C)CC(C)C [2,4,4-trimethylhexane]"
6,-17,"COC(C)OC [1,1-dimethoxyethane]"
7,22,CCCCC(=O)OC [methylpentanoate]
8,-45,C=COCC [ethylvinylether]
9,-3,CCCOC=O [propylformate]
10,41,CCC(C)C(C)O (stereo unspecified) [3-methyl-2-pentanol]
11,56,O=C1C=CCCC1 [2-cyclohexen-1-one]
12,41,"CCCC(C)CC(C)CC (stereo unspecified) [3,5-dimethyloctane]"
13,15,CCC(C)C(CC)CC (stereo unspecified) [3-ethyl-4-methylhexane]
14,86,CCNC=O [N-ethylformamide]
15,50,CCCCCCCCC(C)C [2-methyldecane]
16,38,CCc1cccc(C)c1 [m-ethyltoluene]
17,21,CCC(C=O)CC [2-ethylbutanal]
18,43,CCC(C)CO (stereo unspecified) [2-methyl-1-butanol]
19,71,CCCCCCCCCCC(C)C [2-methyldodecane]
20,-34,C#CCCC [1-pentyne]
21,26,"C=CCCCCCC=C [1,8-nonadiene]"
22,41,O=CC1CCCCC1 [cyclohexanecarboxaldehyde]
23,-12,"CC1=CCCO1 [2,3-dihydro-5-methylfuran]"

row,flash point [°C],Compound
1,83,CCCCCCCCCCCl [1-chlorodecane]
2,6,"CCC(C)C(C)CC (stereo unspecified) [3,4-dimethylhexane]"
3,59,CCC(C)(C)c1ccccc1 [2-phenyl-2-methylbutane]
4,67,CCCCCCCOC(C)=O [heptylacetate]
5,66,CCCCC#CCCCCC [5-undecyne]
6,9,CCCCC=C(C)C [2-methyl-2-heptene]
7,82,CCCc1ccc(OC)cc1 [4-propylanisole]
8,23,CCCC(=O)CC [3-hexanone]
9,34,CCCCO [1-butanol]
10,13,"CCOC(CC)OCC [1,1-diethoxypropane]"
11,88,"CC(C)(C)CC(=O)O [3,3-dimethylbutanoicacid]"
12,36,Cc1cccnc1 [3-picoline]
13,18,CCCCCS [1-pentanethiol]
14,60,CCCCCCCOC=O [heptylformate]
15,-23,CCC(C)S (stereo unspecified) [2-butanethiol]
16,4,CCCCCN [pentylamine]
17,7,"CC1(C)CCCCC1 [1,1-dimethylcyclohexane]"
18,-22,Cc1ccoc1 [3-methylfuran]
19,31,"CCC(C)(C)C(C)(C)CC [3,3,4,4-tetramethylhexane]"
20,113,C=CCCCCCCCCCCCCC [1-pentadecene]

row,Compound,flash point [°C]
1,BrC1CCCCC1 [bromocyclohexane],62
2,Cc1ccccc1N [o-toluidine],85
3,OCCCl [2-chloroethanol],55
4,"CC(C)(Cl)Cl [2,2-dichloropropane]",-5
5,CCOCC [diethylether],-40
6,CCCCCCCCCl [1-chlorooctane],58
7,CCCCOCCOC(C)=O [2-butoxyethylacetate],71
8,CCCCI [1-iodobutane],33
9,Sc1ccccc1 [benzenethiol],51
10,CC(Cl)CO (stereo unspecified) [2-chloro-1-propanol],51
11,"Clc1cccc(Cl)c1 [1,3-dichlorobenzene]",63
12,CC(C)CC#N [3-methylbutanenitrile],28
13,"CC(Cl)Cl [1,1-dichloroethane]",-10
14,C=CCSSCC=C [diallyldisulfide],62
15,"OCC(Cl)CCl (stereo unspecified) [2,3-dichloro-1-propanol]",93
16,CCC#N [propionitrile],6
17,CC(C)=O [acetone],-20
18,CCCCCCCCBr [1-bromooctane],78
19,"Cc1ccc(O)c(C)c1 [2,4-dimethylphenol]",94
